Experimental data from patent US8952024B2, “Herbicidal pyrimidone derivatives” (E I du Pont de Nemours and Company, priority 2009, dated 2015).

What was measured:
Format in all cases: in vivo
[1] = tested on: bermudagrass (Cynodon dactylon); assay: Test B pre-/postemergence plant response
In short: (§1)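 Test compounds, formulated in a non-phytotoxic solvent mixture with surfactant, are applied to the soil surface (loam and sand blend) right after seeding, or sprayed over plants at the 1- to 4-leaf stage grown in peat moss/vermiculite medium. After 13 to 15 days under glasshouse conditions, each species is scored visually from 0 (no effect) to 100 (complete control) against controls.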

[2] = tested on: morningglory (Ipomoea coccinea); assay: Test B pre-/postemergence plant response
In short: as §1

[3] = tested on: canarygrass (Phalaris minor); assay: Test B postemergence plant response
In short: (§2)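 Plants at the 1- to 4-leaf stage (2 to 18 cm tall), grown in pots of peat moss/vermiculite medium with wetting agent and starter nutrients, received postemergence applications of test chemicals. After 13 to 15 days in a greenhouse, injury was rated visually against untreated controls on a 0 (no effect) to 100 (complete control) scale.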

[4] = tested on: chickweed (Stellaria media); assay: Test B postemergence plant response
In short: as §2

[5] = tested on: windgrass (Apera spica-venti); assay: Test B postemergence plant response
In short: as §2

[6] = tested on: winter barley (Hordeum vulgare); assay: Test B postemergence plant response
In short: as §2

[7] = tested on: barnyardgrass (Echinochloa crus-galli); assay: Test B flooded paddy test; settings: for Plant response rating, Barnyardgrass: Flood (flooded paddy test), 13 to 15 days
In short: (§3)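 Each compound is added to standing floodwater (3 cm above soil, maintained) in pots of 2-leaf-stage plants; greenhouse exposure lasts 13–15 d before visual comparison with controls on a 0–100 control scale.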

[8] = tested on: ducksalad (Heteranthera limosa); assay: Test B flooded paddy test; settings: for Plant response rating, Ducksalad: Flood (flooded paddy test), 13 to 15 days
In short: as §3

[9] = tested on: rice (Oryza sativa); assay: Test B flooded paddy test; settings: for Plant response rating, Rice: Flood (flooded paddy test), 13 to 15 days
In short: as §3

[10] = tested on: umbrella sedge (Cyperus difformis); assay: Test B flooded paddy test; settings: for Plant response rating, Sedge, Umbrella: Flood (flooded paddy test), 13 to 15 days
In short: as §3

[11] = 31 g ai/ha, postemergence, scale 0 to 100, 0 is no effect, 100 is complete control
[12] = 62 g ai/ha, postemergence, 0 is no effect, 100 is complete control, 13 to 15 days
[13] = Postemergence, 125 g ai/ha, visual rating after 13 to 15 days, scale 0 (no effect) to 100 (complete control)
[14] = Postemergence, 250 g ai/ha, scale 0 to 100 (0 no effect, 100 complete control)
[15] = 250 g ai/ha, flooded paddy test, visual rating on 0 to 100 scale (0 no effect, 100 complete control) after 13 to 15 days
[16] = 62 g ai/ha, scale of 0 to 100 where 0 is no effect and 100 is complete control
[17] = 125 g ai/ha, scale 0 to 100, 0 is no effect, 100 is complete control
[18] = Flood, 31 g ai/ha, scale 0 to 100 (0 no effect, 100 complete control)

O=C1CCCC(O)=C1C(=O)c1cnc(C2CC2)n(-c2ccccc2)c1=O [Compound 87]
Plant response rating, Bermudagrass [1, 11]: 90
Bermudagrass plant response rating (0 to 100 scale) [1, 12]: 90
Plant response rating, Bermudagrass [1, 13]: 98
Plant response rating, Bermudagrass [1, 14]: 100
Plant response rating, Morningglory [2, 11]: 45
Morningglory plant response rating (0 to 100 scale) [2, 12]: 45
Plant response rating, Morningglory [2, 14]: 65
Plant response rating, Canarygrass [3, 11]: 0
Canarygrass plant response rating (0 to 100 scale) [3, 12]: 30
Plant response rating, Canarygrass [3, 13]: 35
Plant response rating, Canarygrass [3, 14]: 35
Plant response rating, Chickweed [4, 11]: 100
Chickweed plant response rating (0 to 100 scale) [4, 12]: 100
Plant response rating, Chickweed [4, 13]: 100
Plant response rating, Chickweed [4, 14]: 100
Plant response rating, Windgrass [5, 11]: 55
Windgrass plant response rating (0 to 100 scale) [5, 12]: 60
Plant response rating, Windgrass [5, 14]: 95
Plant response rating, Barley [6, 11]: 0
Barley plant response rating (0 to 100 scale) [6, 12]: 0
Plant response rating, Barley [6, 13]: 0
Plant response rating, Barley [6, 14]: 5
Plant response rating, Flood, Barnyardgrass [7, 15]: 60
Plant response rating, Barnyardgrass [7, 16]: 45
Plant response rating, Barnyardgrass [7, 17]: 55
Barnyardgrass plant response rating [7, 18]: 20
Plant response rating, Flood, Ducksalad [8, 15]: 20
Plant response rating, Ducksalad [8, 16]: 30
Plant response rating, Ducksalad [8, 17]: 20
Ducksalad plant response rating [8, 18]: 20
Plant response rating, Flood, Rice [9, 15]: 70
Plant response rating, Rice [9, 16]: 20
Plant response rating, Rice [9, 17]: 60
Rice plant response rating [9, 18]: 0
Plant response rating, Flood, Sedge, Umbrella [10, 15]: 70
Plant response rating, Sedge, Umbrella [10, 16]: 20
Plant response rating, Sedge, Umbrella [10, 17]: 50
Sedge, Umbrella plant response rating [10, 18]: 0
